The values below come from US4942234A, “Isothiazolone 1,1-dioxide derivatives with psychotropic activity” (American Home Products Corporation, priority 1989, dated 1990).

The test system of assay [1] is apomorphine-induced stereotyped behavior (in vivo dopamine receptor blocking activity). To be noted: i.p., mice; inactivity taken as low potential for extrapyramidal side effects.
Assay [2] concerns conditioned avoidance response. Kind of assay: conditioned avoidance (shelf-jump response) test. The assay is classed as in vivo, male CD rats. The conditions noted are these: rats; for Active at: i.p. How it is done:
A test designed to determine the potential antipsychotic activity of the compounds of the invention is the conditioned avoidance (shelf-jump response) test.
This test is carried out as follows:
Male CD rats (Charles River) maintained at approximately 400-450 gm body weight are used. […] A moveable wall, controlled by a motor, determines whether the rat has access to the shelf at any time during the experiment. The experimental chamber also contains a house light and sonalert. A steel grid floor in the main chamber is wired for presentation of electric shock. Each trial consists of a fifteen-second warning tone (conditioned stimulus), continuing for an additional fifteen seconds accompanied by electric shock (unconditioned stimulus). A response (jumping onto the exposed shelf of the upper chamber) occurring during the initial fifteen-second warning tone is considered an avoidance response, while a response occurring during shock delivery is considered an escape response. Trials are presented on a fixed interval schedule of one minute. The session consists of thirty-six trials. Animals are run twice weekly with control sessions always preceding a drug run, and with at least one day intervening. Compounds are administered i.p. or p.o. at appropriate pre-treatment times to a minimum of five rats at each dose level over a range of doses.
The following experimental parameters are recorded by computer: (1) the number of avoidance responses, (2) the number of escape responses, and (3) the number of trials in which no response occurred.
Response counts are summed over all subjects at a given dose. […] This number is expressed as a percentage of the total trials. Control performance is arbitrarily assigned a value of 100% for avoidance responding and the dose calculated to produce a 50% block in avoidance responding (AB50) is obtained from a dose-effect regression line fitted by the method of least squares. Potential antipsychotic compounds suppress avoidance responding and increase escape responding.

Assay [3] deals with limbic D-2 dopamine receptor (Rattus norvegicus, UniProt P61169). Kind of assay: inhibition of limbic D-2 dopamine receptor binding (3H-spiroperidol). To be noted: read-out: Limbic D-2 Binding Inhibition, % inhibition at 1 μM.
limbic D-2 dopamine receptor, sequence (P61169 whole entry): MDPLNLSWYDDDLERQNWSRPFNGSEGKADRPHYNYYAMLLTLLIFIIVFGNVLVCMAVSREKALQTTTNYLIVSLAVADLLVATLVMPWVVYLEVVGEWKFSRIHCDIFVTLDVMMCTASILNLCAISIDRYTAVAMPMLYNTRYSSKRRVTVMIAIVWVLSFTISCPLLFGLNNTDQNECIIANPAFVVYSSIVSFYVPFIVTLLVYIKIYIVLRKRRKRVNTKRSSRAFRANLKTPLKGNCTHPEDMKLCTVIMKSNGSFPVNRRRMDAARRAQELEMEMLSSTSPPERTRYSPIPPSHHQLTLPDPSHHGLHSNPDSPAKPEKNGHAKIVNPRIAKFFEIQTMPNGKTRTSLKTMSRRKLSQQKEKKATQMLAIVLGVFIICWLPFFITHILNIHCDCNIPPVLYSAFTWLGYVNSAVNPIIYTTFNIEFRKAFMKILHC
Procedure: This in vitro assay measures the ability of the compounds tested to bind to the dopamine receptor sites.
The assay is carried out as follows:
Several rats are decapitated and the brains are rapidly removed. Limbic brain tissue (nucleus accumbens, septal area, olfactory tubercle) is dissected and homogenized on ice in 9 volumes of buffer (50 mM Tris-HCl, 120 mM NaCl, 5 mM KCl, 1 mM CaCl2, 1 mM MgCl2, 0.1% L-ascorbic acid, 10 μM pargyline HCl, pH 7.1) using a Polytron homogenizer at setting 5 for three 15-sec bursts. The homogenate is then diluted 4-fold with buffer and centrifuged at 30,000×g for 20 min, and the supernatant is discarded. The pellet is resuspended in the same volume of buffer and recentrifuged as before, again discarding the supernatant. This pellet is then resuspended in the same volume of buffer used in the homogenization, and the protein content of this preparation is assayed by the Lowry method. The homogenate is stored frozen at -70° C. until use.
At the end of the incubation, 3 ml of cold 50 mM Tris-HCl, pH 7.7, are added to each tube, and the contents are rapidly vacuum-filtered through Whatman GF/B glass-fiber filters. The filters are then rapidly washed 3 times with 3 ml of the same buffer, placed in scintillation vials, and shaken for 15 min with 10 ml of Hydrofluor (National Diagnostics) scintillation cocktail. The vials are then counted in a Packard 460CD scintillation counter.
Specific binding is defined as total binding less binding in the presence of 1 μM (+)butaclamol. Binding in the presence of various concentrations of test drug is expressed as a per cent of specific binding when no drug is present.

Counter-ions that a name gives are not always drawn.

Usually inhibition stands for the share of the control response that was lost under treatment.

With `O=C1CC2(CCCC2)CC(=O)N1CCCCN1CCN(c2ncccn2)CC1` [Buspirone, 8-[4-[4-(2-pyrimidinyl)-1-piperazinyl]butyl]-8-azaspiro[4.5]decane-7,9-dione, reference compound], the “activity in apomorphine-induced stereotyped behavior assay” value in assay [1] is “inactive”. Besides, in assay [2] (Rattus norvegicus, ip, read-out: AB50 (50% block in avoidance responding)), the ED50 worked out at 9.44 mg/kg. Consider `Cl.O=C1C2C3CCC(O3)C2S(=O)(=O)N1CCCCc1ccncc1` (stereo not drawn) [Example 1, Hexahydro-2-[4-(4-pyridinyl)butyl]-4,7-epoxy-1,2-benzisothiazol-3(2H)-one 1,1-dioxide, hydrochloride], for which the inhibition at 1 µM in assay [3] stood at 3%. Further, the Active at in assay [2] is 40 mg/kg.

In the case of `O=C1C2C3CCC(O3)C2S(=O)(=O)N1CCCCC1CCN(c2ncccn2)CC1` (stereo not drawn) [Example 2, Hexahydro-2-[4-[1-(2-pyrimidinyl)-4-piperidinyl]butyl]-4,7-epoxy-1,2-benzisothiazol-3(2H)-one 1,1-dioxide, hydrochloride, monohydrate], the inhibition at 1 µM in assay [3] turned out to be 6%. With `Cl.O=C1C2C3C=CC(C3)C2S(=O)(=O)N1CCCCc1ccncc1` (stereo not drawn) [Example 3, 3a,4,7,7a-Tetrahydro-2-[4-(4-pyridinyl)butyl]-4,7-methano-1,2-benzisothiazol-3(2H)-one 1,1-dioxide, hydrochloride], the inhibition at 1 µM in assay [3] came to 1%. In assay [2], this molecule came in with an Active at of 40 mg/kg. `O=C1C2C3CCC(O3)C2S(=O)(=O)N1CCCCC1CCN(c2cncc(Cl)n2)CC1` (stereo not drawn) [Example 4, Hexahydro-2-[4-[1-(6-chloro-2-pyrazinyl)-4-piperidinyl]butyl]-4,7-epoxy-1,2-benzisothiazol-3(2H)-one 1,1-dioxide, hydrochloride, hydrate]: the inhibition at 1 µM in assay [3] came out at 7%.

Turning to `CC1=C(C)CC2C(C1)C(=O)N(CCCCc1ccncc1)S2(=O)=O.Cl` (stereo not drawn) [Example 5, 3a,4,7,7a-Tetrahydro-5,6-dimethyl-2-[4-(4-pyridinyl)butyl]-1,2-benzisothiazol-3(2H)-one 1,1-dioxide, hydrochloride], the inhibition at 1 µM in assay [3] was found to be 56%. In addition, the Active at in assay [2] is reported as 40 mg/kg. Turning to `O=C1C2C3CCC(O3)C2S(=O)(=O)N1CCCCC1CCN(c2cnccn2)CC1` (stereo not drawn) [Example 6, Hexahydro-2-[4-[1-(2-pyrazinyl)-4-piperidinyl]butyl]-4,7-epoxy-1,2-benzisothiazol-3(2H)-one 1,1-dioxide, hydrochloride, hemihydrate], the inhibition at 1 µM in assay [3] worked out at 6%. On the same count and under the same terms, for `O=c1c2ccccc2[s+]([O-])n1CCCCc1ccncc1` (stereo not drawn) [Example 7, 2-[4-(4-Pyridinyl)butyl]-1,2-benzisothiazol-3(2H)-one 1-oxide, hydrochloride] the value was 14%.
